Measurements as given in patent US6709864B1, “Adipogenic differentiation of human mesenchymal stem cells” (Osiris Therapeutics, Inc., priority 1996, dated 2004).

What was measured:
[1] = system: human mesenchymal stem cells; assay: Nile Red / DAPI fluorescence plate reader assay of adipogenic differentiation of hMSCs; format: cell-based
Experimental: These experiments were performed to determine the effect of adding varying concentrations of indomethacin to mesenchymal stem cells in culture to induce adipogenic differentiation. […] We also tested indomethacin under the same conditions however in the absence of methyl isobutylxanthine. The results were compared visually by observing the accumulation of lipid within the cells and by staining the lipid with the fluorescent lipid-soluble dye Nile Red and reading on a fluorescence plate reader as described in Example 6. These experiments were performed to determine the effect of adding varying concentrations of 15-deoxy Δ^12,14 -prostaglandin J2 (15d-PGJ2) to […] in culture to induce adipogenic differentiation. […] We also tested 15d-PGJ2 under the same conditions without methyl isobutylxanthine present. hMSCs were grown in 12 or 24 well tissue culture plates and were treated with adipogenic inducing agents as described above when the cells were post-confluent. After three treatments, the cells were allowed to accumulate lipid for an additional week prior to analysis. The cell layers were rinsed with Dulbecco's modified PBS (D.PBS) and fixed for 30 minutes in 10% Neutral Buffered Formalin. The plates were then rinsed with D. PBS and incubated for 30 minutes with 0.02% Saponin, 0.8 μg/ml DAPI (from an aqueous 2 mg/ml stock) and 1 μg/ml Nile Red (from a 1 mg/ml stock in acetone) in D. PBS. Plates were then rinsed three times with D.PBS.

[2] = system: human mesenchymal stem cells; assay: Adipogenesis assay of hMSCs, lipid vacuoles observed by microscopy / Oil Red O; format: cell-based; conditions: methyl isobutylxanthine alone in normal hMSC media during induction, then 14 days Adipogenic Maintenance Media
Experimental: Human MSCs are isolated from the red bone marrow of volunteer donors as described in U.S. Pat. No.5,486,359. The cells are grown until colonies are well established and at this point the cells are subcultured (1 to 3) or they can be taken to assay for in vitro adipogenesis. For the adipogenesis assay, hMSCs are subcultured into 35 mm tissue culture dishes at 100,000 cells per dish and fed with 2 milliliters normal hMSC Media (Dulbecco's Modified Eagle's Media (DMEM), 10% selected Fetal Bovine Serum (FBS) and antibiotic/antimycotic mixture (IX) (Life Technologies, Inc.)) and cells are maintained at 37° C., 5% CO2 and 90% humidity. The cells are refed with the fresh media every third day and are allowed to multiply and become confluent. The cells are maintained after reaching confluence by refeeding every third day and this time period of post confluence culturing enhances the adipogenic response in the next step (at least out to 14 days). The differentiation into adipocytes is initiated by changing the media to 2 ml of Adipogenic Induction Media (DMEM with 10% fetal bovine serum containing 10 μg/ml insulin (human recombinant, Boehringer Mannheim Corp.), 0.5 mM methyl isobutylxanthine (MIX)(Sigma Chemical Co.), 1 μM dexamethasone (Dex)(Sigma Chemical Co.)). […]

[3] = 1 μM 15d-PGJ2 with insulin only (I)
[4] = 10 μM 15d-PGJ2 with insulin only (I)
[5] = 50 μM indomethacin in DI (no MIX)
[6] = 50 μM indomethacin with insulin only (I)
[7] = 100 μM indomethacin in DI (no MIX)
[8] = 100 μM indomethacin with insulin only (I)
[9] = 200 μM indomethacin in DI (no MIX)
[10] = 200 μM indomethacin with insulin only (I)

`CCCCC/C=C/C=C1/C(=O)C=C[C@@H]1C/C=C\CCCC(=O)O` [15d-PGJ2, 15-deoxy Δ^12,14-prostaglandin J2] was tested, and the “DAPI (cor)” value ([1]; 1 μM 15d-PGJ2 in DI (no MIX)) was 5.99 relative fluorescence intensity, the “Nile red (cor)” value ([1]; 1 μM 15d-PGJ2 in DI (no MIX)) was 1.19 relative fluorescence intensity and the “Nile red/DAPI” value ([1]; 1 μM 15d-PGJ2 in DI (no MIX)) was 0.20. For the same molecule, the “DAPI (cor)” value ([1]; 1 μM 15d-PGJ2 in MDI) was 6.53 relative fluorescence intensity, the “Nile red (cor)” value ([1]; 1 μM 15d-PGJ2 in MDI) was 13.16 relative fluorescence intensity and the “Nile red/DAPI” value ([1]; 1 μM 15d-PGJ2 in MDI) was 2.02. For the same molecule, the “DAPI (cor)” value [1, 3] was 4.98 relative fluorescence intensity, the “Nile red (cor)” value [1, 3] was 0.83 relative fluorescence intensity and the “Nile red/DAPI” value [1, 3] was 0.17. For the same molecule, the “DAPI (cor)” value ([1]; 10 μM 15d-PGJ2 in MDI) was 7.22 relative fluorescence intensity, the “Nile red (cor)” value ([1]; 10 μM 15d-PGJ2 in MDI) was 17.56 relative fluorescence intensity and the “Nile red/DAPI” value ([1]; 10 μM 15d-PGJ2 in MDI) was 2.43. For the same molecule, the “DAPI (cor)” value [1, 4] was 5.75 relative fluorescence intensity, the “Nile red (cor)” value [1, 4] was 0.85 relative fluorescence intensity and the “Nile red/DAPI” value [1, 4] was 0.15. For the same molecule, the adipogenic response ([1]; 15d-PGJ2 1 or 10 μM in MDI induction medium) was “dose dependent increase”, the “adipogenic effectiveness compared with indomethacin” value ([1]; 15d-PGJ2 at 10 μM added to MDI medium) was “nearly as effective as indomethacin” and the effect on adipogenesis ([1]; 15d-PGJ2 with insulin alone) was “no significant effect”. The “DAPI (cor)” value ([1]; DI + 10 15d-PGJ2 (no MIX)) was 5.36 relative fluorescence intensity, the “Nile red (cor)” value ([1]; DI + 10 15d-PGJ2 (no MIX)) was 2.57 relative fluorescence intensity and the “Nile red/DAPI” value ([1]; DI + 10 15d-PGJ2 (no MIX)) was 0.48. For the same molecule, the adipogenic response ([1]; DI + 15d-PGJ2) was “weak adipogenic response”.

In the case of `COc1ccc2c(c1)c(CC(=O)O)c(C)n2C(=O)c1ccc(Cl)cc1` [indomethacin], the “DAPI (cor)” value [1, 5] is reported as 6.66 relative fluorescence intensity, the “Nile red (cor)” value [1, 5] is reported as 3.11 relative fluorescence intensity and the “Nile red/DAPI” value [1, 5] is reported as 0.47. The “DAPI (cor)” value ([1]; 50 μM indomethacin in MDI) was 7.8 relative fluorescence intensity, the “Nile red (cor)” value ([1]; 50 μM indomethacin in MDI) was 11.72 relative fluorescence intensity and the “Nile red/DAPI” value ([1]; 50 μM indomethacin in MDI) was 1.50. For the same molecule, the “DAPI (cor)” value [1, 6] was 5.12 relative fluorescence intensity, the “Nile red (cor)” value [1, 6] was 0.64 relative fluorescence intensity and the “Nile red/DAPI” value [1, 6] was 0.13. The “DAPI (cor)” value [1, 7] was 6.77 relative fluorescence intensity, the “Nile red (cor)” value [1, 7] was 5.35 relative fluorescence intensity and the “Nile red/DAPI” value [1, 7] was 0.79. For the same molecule, the “DAPI (cor)” value ([1]; 100 μM indomethacin in MDI) was 7.11 relative fluorescence intensity, the “Nile red (cor)” value ([1]; 100 μM indomethacin in MDI) was 16.39 relative fluorescence intensity and the “Nile red/DAPI” value ([1]; 100 μM indomethacin in MDI) was 2.31. For the same molecule, the “DAPI (cor)” value [1, 8] was 5.81 relative fluorescence intensity, the “Nile red (cor)” value [1, 8] was 0.74 relative fluorescence intensity and the “Nile red/DAPI” value [1, 8] was 0.13. For the same molecule, the “DAPI (cor)” value [1, 9] was 6.03 relative fluorescence intensity, the “Nile red (cor)” value [1, 9] was 10.08 relative fluorescence intensity and the “Nile red/DAPI” value [1, 9] was 1.67. For the same molecule, the “DAPI (cor)” value ([1]; 200 μM indomethacin in MDI) was 8.72 relative fluorescence intensity, the “Nile red (cor)” value ([1]; 200 μM indomethacin in MDI) was 20.27 relative fluorescence intensity and the “Nile red/DAPI” value ([1]; 200 μM indomethacin in MDI) was 2.32. For the same molecule, the “DAPI (cor)” value [1, 10] was 5.28 relative fluorescence intensity, the “Nile red (cor)” value [1, 10] was 0.74 relative fluorescence intensity and the “Nile red/DAPI” value [1, 10] was 0.14. For the same molecule, the “commitment of hMSCs to adipocyte lineage and intracellular lipid accumulation” value ([1]; indomethacin 50-200 μM in MDI induction medium) was “dose dependent increase”, the hMSCs becoming adipocytes ([1]; indomethacin at 200 μM in MDI) was about 100% and the “Nile Red staining relative to MDI sample alone” value ([1]; indomethacin at 200 μM in MDI, fluorescent plate reader) was “nearly three times that of the MDI sample alone”. For the same molecule, the “adipogenic differentiation level relative to MDI+indomethacin” value ([1]; indomethacin in DMEM with dexamethasone and insulin only (DI)) was “approximately half that of the MDI+indomethacin sample” and the “effect on hMSC adipogenesis” value ([1]; indomethacin with insulin) was “no significant effect”.

With `CC(C)Cn1c(=O)n(C)c(=O)c2[nH]cnc21` [methyl isobutylxanthine, 1-methyl-3-isobutylxanthine] the “cell phenotype (morphology)” value [2] was “retain a flat fibroblastic phenotype”.
